Tested on: hemoglobin-haptoglobin complex
Assay: Stability of hemoglobin (as hemoglobin-haptoglobin complex) in samples preserved at 37° C. in preservation solution containing 1 unit/L haptoglobin, Hb measured by latex agglutination method (Examples 1 to 7)
Design: species or system human
Details: for Hb concentration / Recovery ratio with respect to Hb concentration after 0 days / Recovery ratio with respect to Hb after 0 days: 37° C.; for recovery ratio of hemoglobin in the sample: Feces 1, Feces 2, Feces 3
Summary of the method: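 Latex agglutination (anti-human hemoglobin rabbit polyclonal latex) measured Hb in samples stored at 37 °C up to 21 days; values expressed as % recovery versus day 0. Preservation solution: HEPES 40 mmol/L pH 6.8, BSA 0.1%, NaN3 0.1%, haptoglobin 1 unit/L, phenylboronic acid 0–100 mmol/L, optional sugars; ~300 µg/L Hb, 0.5% feces or none.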

[1] = Feces 1, sugar 50 mmol/L + phenylboronic acid 15 mmol/L, 0 days
[2] = Feces 1, sugar 50 mmol/L + phenylboronic acid 15 mmol/L, 7 days
[3] = Feces 1, sugar 50 mmol/L + phenylboronic acid 15 mmol/L, 14 days
[4] = Feces 1, sugar 100 mmol/L + phenylboronic acid 15 mmol/L, 0 days
[5] = Feces 1, sugar 100 mmol/L + phenylboronic acid 15 mmol/L, 0 days (Table 7)
[6] = Feces 1, sugar 100 mmol/L + phenylboronic acid 15 mmol/L, 7 days
[7] = Feces 1, sugar 100 mmol/L + phenylboronic acid 15 mmol/L, 7 days (Table 7)
[8] = Feces 1, sugar 100 mmol/L + phenylboronic acid 15 mmol/L, 14 days
[9] = Feces 1, sugar 100 mmol/L + phenylboronic acid 15 mmol/L, 14 days (Table 7)
[10] = Feces 1, sugar 100 mmol/L + phenylboronic acid 50 mmol/L, 0 days
[11] = Feces 1, sugar 100 mmol/L + phenylboronic acid 50 mmol/L, 7 days
[12] = Feces 1, sugar 100 mmol/L + phenylboronic acid 50 mmol/L, 14 days
[13] = Feces 1, sugar 100 mmol/L, no phenylboronic acid, 0 days
[14] = Feces 1, sugar 100 mmol/L, no phenylboronic acid, 7 days
[15] = Feces 1, sugar 100 mmol/L, no phenylboronic acid, 14 days
[16] = Feces 2, sugar 50 mmol/L + phenylboronic acid 15 mmol/L, 0 days
[17] = Feces 2, sugar 50 mmol/L + phenylboronic acid 15 mmol/L, 7 days
[18] = Feces 2, sugar 50 mmol/L + phenylboronic acid 15 mmol/L, 14 days
[19] = Feces 2, sugar 100 mmol/L + phenylboronic acid 15 mmol/L, 0 days
[20] = Feces 2, sugar 100 mmol/L + phenylboronic acid 15 mmol/L, 0 days (Table 7)
[21] = Feces 2, sugar 100 mmol/L + phenylboronic acid 15 mmol/L, 7 days
[22] = Feces 2, sugar 100 mmol/L + phenylboronic acid 15 mmol/L, 7 days (Table 7)
[23] = Feces 2, sugar 100 mmol/L + phenylboronic acid 15 mmol/L, 14 days
[24] = Feces 2, sugar 100 mmol/L + phenylboronic acid 15 mmol/L, 14 days (Table 7)
[25] = Feces 2, sugar 100 mmol/L + phenylboronic acid 50 mmol/L, 0 days
[26] = Feces 2, sugar 100 mmol/L + phenylboronic acid 50 mmol/L, 7 days
[27] = Feces 2, sugar 100 mmol/L + phenylboronic acid 50 mmol/L, 14 days
[28] = Feces 2, sugar 100 mmol/L, no phenylboronic acid, 0 days
[29] = Feces 2, sugar 100 mmol/L, no phenylboronic acid, 7 days
[30] = Feces 2, sugar 100 mmol/L, no phenylboronic acid, 14 days
[31] = Feces 3, sugar 50 mmol/L + phenylboronic acid 15 mmol/L, 0 days
[32] = Feces 3, sugar 50 mmol/L + phenylboronic acid 15 mmol/L, 7 days
[33] = Feces 3, sugar 50 mmol/L + phenylboronic acid 15 mmol/L, 14 days
[34] = Feces 3, sugar 100 mmol/L + phenylboronic acid 15 mmol/L, 0 days
[35] = Feces 3, sugar 100 mmol/L + phenylboronic acid 15 mmol/L, 0 days (Table 7)
[36] = Feces 3, sugar 100 mmol/L + phenylboronic acid 15 mmol/L, 7 days
[37] = Feces 3, sugar 100 mmol/L + phenylboronic acid 15 mmol/L, 7 days (Table 7)
[38] = Feces 3, sugar 100 mmol/L + phenylboronic acid 15 mmol/L, 14 days
[39] = Feces 3, sugar 100 mmol/L + phenylboronic acid 15 mmol/L, 14 days (Table 7)
[40] = Feces 3, sugar 100 mmol/L + phenylboronic acid 50 mmol/L, 0 days
[41] = Feces 3, sugar 100 mmol/L + phenylboronic acid 50 mmol/L, 7 days
[42] = Feces 3, sugar 100 mmol/L + phenylboronic acid 50 mmol/L, 14 days
[43] = Feces 3, sugar 100 mmol/L, no phenylboronic acid, 0 days
[44] = Feces 3, sugar 100 mmol/L, no phenylboronic acid, 7 days
[45] = Feces 3, sugar 100 mmol/L, no phenylboronic acid, 14 days
[46] = No feces, sugar 50 mmol/L + phenylboronic acid 15 mmol/L, 0 days
[47] = No feces, sugar 50 mmol/L + phenylboronic acid 15 mmol/L, 7 days
[48] = No feces, sugar 50 mmol/L + phenylboronic acid 15 mmol/L, 14 days
[49] = No feces, sugar 100 mmol/L + phenylboronic acid 15 mmol/L, 0 days
[50] = No feces, sugar 100 mmol/L + phenylboronic acid 15 mmol/L, 0 days (Table 7)
[51] = No feces, sugar 100 mmol/L + phenylboronic acid 15 mmol/L, 7 days
[52] = No feces, sugar 100 mmol/L + phenylboronic acid 15 mmol/L, 7 days (Table 7)
[53] = No feces, sugar 100 mmol/L + phenylboronic acid 15 mmol/L, 14 days
[54] = No feces, sugar 100 mmol/L + phenylboronic acid 15 mmol/L, 14 days (Table 7)
[55] = No feces, sugar 100 mmol/L + phenylboronic acid 50 mmol/L, 0 days
[56] = No feces, sugar 100 mmol/L + phenylboronic acid 50 mmol/L, 7 days
[57] = No feces, sugar 100 mmol/L + phenylboronic acid 50 mmol/L, 14 days
[58] = No feces, sugar 100 mmol/L, no phenylboronic acid, 0 days
[59] = No feces, sugar 100 mmol/L, no phenylboronic acid, 7 days
[60] = No feces, sugar 100 mmol/L, no phenylboronic acid, 14 days

OC[C@@H](O)[C@@H](O)[C@H](O)[C@H](O)CO [Mannitol, mannitol]
Hb concentration [1]: 288 µg/L
Recovery ratio with respect to Hb concentration after 0 days [1]: 100%
Hb concentration [2]: 278 µg/L
Recovery ratio with respect to Hb concentration after 0 days [2]: 96%
Hb concentration [3]: 270 µg/L
Recovery ratio with respect to Hb concentration after 0 days [3]: 94%
Hb concentration [4]: 281 µg/L
Recovery ratio with respect to Hb concentration after 0 days [4]: 100%
Hb concentration [5]: 301 µg/L
Recovery ratio with respect to Hb after 0 days [5]: 100%
Hb concentration [6]: 279 µg/L
Recovery ratio with respect to Hb concentration after 0 days [6]: 99%
Hb concentration [7]: 288 µg/L
Recovery ratio with respect to Hb after 0 days [7]: 96%
Hb concentration [8]: 276 µg/L
Recovery ratio with respect to Hb concentration after 0 days [8]: 98%
Hb concentration [9]: 287 µg/L
Recovery ratio with respect to Hb after 0 days [9]: 95%
Hb concentration [10]: 270 µg/L
Recovery ratio with respect to Hb after 0 days [10]: 100%
Hb concentration [11]: 257 µg/L
Recovery ratio with respect to Hb after 0 days [11]: 95%
Hb concentration [12]: 255 µg/L
Recovery ratio with respect to Hb after 0 days [12]: 95%
Hb concentration [13]: 276 µg/L
Recovery ratio with respect to Hb concentration after 0 days [13]: 100%
Hb concentration [14]: 156 µg/L
Recovery ratio with respect to Hb concentration after 0 days [14]: 57%
Hb concentration [15]: 130 µg/L
Recovery ratio with respect to Hb concentration after 0 days [15]: 47%
Hb concentration [16]: 296 µg/L
Recovery ratio with respect to Hb concentration after 0 days [16]: 100%
Hb concentration [17]: 291 µg/L
Recovery ratio with respect to Hb concentration after 0 days [17]: 98%
Hb concentration [18]: 280 µg/L
Recovery ratio with respect to Hb concentration after 0 days [18]: 95%
Hb concentration [19]: 290 µg/L
Recovery ratio with respect to Hb concentration after 0 days [19]: 100%
Hb concentration [20]: 298 µg/L
Recovery ratio with respect to Hb after 0 days [20]: 100%
Hb concentration [21]: 290 µg/L
Recovery ratio with respect to Hb concentration after 0 days [21]: 100%
Hb concentration [22]: 284 µg/L
Recovery ratio with respect to Hb after 0 days [22]: 95%
Hb concentration [23]: 286 µg/L
Recovery ratio with respect to Hb concentration after 0 days [23]: 99%
Hb concentration [24]: 284 µg/L
Recovery ratio with respect to Hb after 0 days [24]: 95%
Hb concentration [25]: 268 µg/L
Recovery ratio with respect to Hb after 0 days [25]: 100%
Hb concentration [26]: 263 µg/L
Recovery ratio with respect to Hb after 0 days [26]: 98%
Hb concentration [27]: 274 µg/L
Recovery ratio with respect to Hb after 0 days [27]: 102%
Hb concentration [28]: 284 µg/L
Recovery ratio with respect to Hb concentration after 0 days [28]: 100%
Hb concentration [29]: 97 µg/L
Recovery ratio with respect to Hb concentration after 0 days [29]: 34%
Hb concentration [30]: 81 µg/L
Recovery ratio with respect to Hb concentration after 0 days [30]: 28%
Hb concentration [31]: 293 µg/L
Recovery ratio with respect to Hb concentration after 0 days [31]: 100%
Hb concentration [32]: 247 µg/L
Recovery ratio with respect to Hb concentration after 0 days [32]: 84%
Hb concentration [33]: 238 µg/L
Recovery ratio with respect to Hb concentration after 0 days [33]: 81%
Hb concentration [34]: 286 µg/L
Recovery ratio with respect to Hb concentration after 0 days [34]: 100%
Hb concentration [35]: 288 µg/L
Recovery ratio with respect to Hb after 0 days [35]: 100%
Hb concentration [36]: 243 µg/L
Recovery ratio with respect to Hb concentration after 0 days [36]: 85%
Hb concentration [37]: 231 µg/L
Recovery ratio with respect to Hb after 0 days [37]: 80%
Hb concentration [38]: 240 µg/L
Recovery ratio with respect to Hb concentration after 0 days [38]: 84%
Hb concentration [39]: 220 µg/L
Recovery ratio with respect to Hb after 0 days [39]: 76%
Hb concentration [40]: 254 µg/L
Recovery ratio with respect to Hb after 0 days [40]: 100%
Hb concentration [41]: 233 µg/L
Recovery ratio with respect to Hb after 0 days [41]: 92%
Hb concentration [42]: 226 µg/L
Recovery ratio with respect to Hb after 0 days [42]: 89%
Hb concentration [43]: 282 µg/L
Recovery ratio with respect to Hb concentration after 0 days [43]: 100%
Hb concentration [44]: 93 µg/L
Recovery ratio with respect to Hb concentration after 0 days [44]: 33%
Hb concentration [45]: 78 µg/L
Recovery ratio with respect to Hb concentration after 0 days [45]: 28%
Hb concentration [46]: 270 µg/L
Recovery ratio with respect to Hb concentration after 0 days [46]: 100%
Hb concentration [47]: 263 µg/L
Recovery ratio with respect to Hb concentration after 0 days [47]: 98%
Hb concentration [48]: 254 µg/L
Recovery ratio with respect to Hb concentration after 0 days [48]: 94%
Hb concentration [49]: 269 µg/L
Recovery ratio with respect to Hb concentration after 0 days [49]: 100%
Hb concentration [50]: 287 µg/L
Recovery ratio with respect to Hb after 0 days [50]: 100%
Hb concentration [51]: 260 µg/L
Recovery ratio with respect to Hb concentration after 0 days [51]: 97%
Hb concentration [52]: 272 µg/L
Recovery ratio with respect to Hb after 0 days [52]: 95%
Hb concentration [53]: 252 µg/L
Recovery ratio with respect to Hb concentration after 0 days [53]: 94%
Hb concentration [54]: 269 µg/L
Recovery ratio with respect to Hb after 0 days [54]: 94%
Hb concentration [55]: 254 µg/L
Recovery ratio with respect to Hb after 0 days [55]: 100%
Hb concentration [56]: 242 µg/L
Recovery ratio with respect to Hb after 0 days [56]: 95%
Hb concentration [57]: 241 µg/L
Recovery ratio with respect to Hb after 0 days [57]: 95%
Hb concentration [58]: 261 µg/L
Recovery ratio with respect to Hb concentration after 0 days [58]: 100%
Hb concentration [59]: 251 µg/L
Recovery ratio with respect to Hb concentration after 0 days [59]: 96%
Hb concentration [60]: 244 µg/L
Recovery ratio with respect to Hb concentration after 0 days [60]: 93%
recovery ratio of hemoglobin in the sample (sugar 100 mmol/L further added to other arylboronic acids (3-CPBA, 3-HPBA, 3-APBA) 15 mmol/L): further improved
recovery ratio of hemoglobin in the sample (sugar 50 or 100 mmol/L further added to phenylboronic acid 15 mmol/L): remarkably improved

— patent US12215140B2, “Method of stabilizing protein contained in specimen and solution for stabilizing protein contained in specimen” (EIKEN KAGAKU KABUSHIKI KAISHA, priority 2018, dated 2025)
